Results as given in US20220047589A1, “PDE9 INHIBITORS FOR TREATING THALASSEMIA” (Imara Inc., priority 2019, published 2022).
Entries after “also recorded” stand apart in the source; their conditions may differ.

Experiments:
Hbb^th1 mice [1] = assay: In vivo study in Hbb^th1 thalassemia mice: blood Hb and RBC levels; set-up: species or system mouse
Description: (§1) This model was used to evaluate the effect of Compound 1 to treat thalassemia.
(§2) Hbb^th1 mice were given Compound 1 dissolved in 10:90 DMSO:corn oil once daily, by oral gavage, at either a high dose (60 mg/kg) or a low dose (30 mg/kg). A normal (C57BL/6) mouse was included as a control in the study to establish baselines along with a Hbb^th1 vehicle mouse not given Compound 1. Animals were observed once daily for morbidity and mortality. Mice were not allowed to recover from anesthesia and were killed by cervical dislocation while still anesthetized. Necropsy was limited to removal and weighing of the spleen for further analysis.
Blood was collected on day 30, from the retroorbital sinus of all mice, while mice were under isoflurane anesthesia, using heparin capillaries and EDTA-coated tubes. Parameters measured were: Hb levels and RBC levels.

Hbb^th1 mice [2] = assay: Erythroblast differentiation (RBC maturation) in spleen cells of treated Hbb^th1 mice by flow cytometry; format: in vivo, mouse; conditions: 30 or 60 mg/kg once daily by oral gavage
Description: as §1, §2
RBC maturation is a key mechanistic component in reducing pathology of thalassemia. Therefore, immature RBC (Ery.B: late basophilic and polychromatic) percentage, mature RBC (Ery.C: ortochromatic and reticulocytes) percentage, and maturation index were also measured. […] Cells were further analyzed by flow cytometry (Gallios, Beckman) using FlowJo software v.10.1 (FlowJo, LLC). Results were expressed as the percentage of Ery.B (Live-Dead^neg, Ter-119^pos, CD71^pos, FSC^low) or Ery.C (Live-Dead^neg, Ter-119^pos, CD71^neg, FSC^low) populations. Maturation index was calculated as Ery.B/Ery.C ratio.

[3] = Effect of food on adverse event profile on once-daily administration to patients; format: in vivo; conditions: once a day with food
Description: In some embodiments, Compound 1, or a pharmaceutically acceptable salt, solvate, or polymorph thereof is administered to a patient, wherein Compound 1, or a pharmaceutically acceptable salt, solvate, or polymorph thereof is administered once a day with food. […] The incidence and severity of the side effects, such as nausea, emesis and headache, can be reduced when Compound 1, or a pharmaceutically acceptable salt, solvate, or polymorph thereof is taken with food.

In the case of `C[C@@H]1CN(Cc2ncccn2)C[C@H]1c1cn2c(C3CCOCC3)ncc2c(=O)[nH]1` [Compound 1, 6-[(3S,4S)-4-methyl-1-(pyrimidin-2-ylmethyl)pyrrolidin-3-yl]-3-tetrahydropyran-4-yl-7H-imidazo[1,5-a]pyrazin-8-one], the “Hb levels (total Hb amount)” value (Hbb^th1 mice [1]; 30 or 60 mg/kg once daily by oral gavage, blood on day 30, FIG. 1A) is reported as “increase Hb levels; also recorded: increases the total Hb amount”, the “RBC levels (RBC amount)” value (Hbb^th1 mice [1]; 30 or 60 mg/kg once daily by oral gavage, blood on day 30, FIG. 1B) is reported as “increased RBC levels; also recorded: increases” and the “increase of total Hb vs. control groups” value (Hbb^th1 mice [1]; high dose (60 mg/kg), once daily by oral gavage, blood collected on day 30) is reported as 1.3 g/dL. The “immature RBC (Ery.B) percentage” value (Hbb^th1 mice [2]; FIG. 2A) was “reduces immature RBC cell percentages; also recorded: reduces immature RBC levels”, the “mature RBC (Ery.C) percentage” value (Hbb^th1 mice [2]; FIG. 2B) was “increases mature RBC cell percentages; also recorded: increases mature RBC levels” and the “adverse event profile (nausea, emesis, headache) when taken with food” value [3] was “food reduce the adverse event profile dramatically”.
